Converted amounts (≈) assume the structure as drawn.
Key:
[1] = target: DNA gyrase subunit A/DNA gyrase subunit B (Mycobacterium tuberculosis (strain ATCC 25618 / H37Rv), UniProt P9WG45+P9WG47); test: Inhibition of Mycobacterium tuberculosis DNA gyrase assessed as inhibition of DNA supercoiling activity using relaxed pBR322 as substrate incubated for 30 mins by ethidium bromide staining based agarose gel electrophoresis
[2] = system: Mycobacterium tuberculosis; test: Antimycobacterial activity against Mycobacterium tuberculosis incubated for 7 days by alamar blue assay; format: functional; details: 168 h
[3] = Cytotoxicity against mouse RAW264.7 cells assessed as inhibition of cell viability at 100 uM measured after 48 hrs by MTT assay relative to control; format: toxicity; details: read-out: INH
DNA gyrase subunit B = DNA gyrase subunit B (Mycobacterium smegmatis, UniProt P0C559); test: Inhibition of Mycobacterium smegmatis DNA gyrase B expressed in BL21(DE3)pLysS cells assessed as inhibition of […] activity in presence of ATP measured after 30 mins by malachite green dye based assay; format: cell-based, Mycolicibacterium smegmatis
[4] = Cytotoxicity against mouse RAW264.7 cells assessed as inhibition of cell viability at 100 uM measured after 72 hrs by MTT assay relative to control; format: toxicity; details: read-out: INH

Chain of DNA gyrase subunit B (P0C559 whole entry): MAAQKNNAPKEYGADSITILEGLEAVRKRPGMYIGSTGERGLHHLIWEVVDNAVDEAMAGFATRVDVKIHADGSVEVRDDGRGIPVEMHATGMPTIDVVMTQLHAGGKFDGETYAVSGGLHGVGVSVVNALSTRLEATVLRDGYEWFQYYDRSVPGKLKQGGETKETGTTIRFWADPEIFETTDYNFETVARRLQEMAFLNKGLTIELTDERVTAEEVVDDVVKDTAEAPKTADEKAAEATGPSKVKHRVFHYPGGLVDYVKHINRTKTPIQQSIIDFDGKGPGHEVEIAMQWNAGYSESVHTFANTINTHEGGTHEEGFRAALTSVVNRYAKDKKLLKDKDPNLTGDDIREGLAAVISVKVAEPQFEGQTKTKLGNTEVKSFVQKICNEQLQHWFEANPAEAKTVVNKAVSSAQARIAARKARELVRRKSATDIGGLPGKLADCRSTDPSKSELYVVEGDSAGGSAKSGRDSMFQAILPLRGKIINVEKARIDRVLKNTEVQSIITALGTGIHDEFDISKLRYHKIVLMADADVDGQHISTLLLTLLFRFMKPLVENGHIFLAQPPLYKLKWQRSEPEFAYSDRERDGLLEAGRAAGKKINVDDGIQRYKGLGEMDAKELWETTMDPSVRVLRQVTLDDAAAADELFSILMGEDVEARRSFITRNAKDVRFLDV
Chain of DNA gyrase subunit A/DNA gyrase subunit B (P9WG45 whole entry): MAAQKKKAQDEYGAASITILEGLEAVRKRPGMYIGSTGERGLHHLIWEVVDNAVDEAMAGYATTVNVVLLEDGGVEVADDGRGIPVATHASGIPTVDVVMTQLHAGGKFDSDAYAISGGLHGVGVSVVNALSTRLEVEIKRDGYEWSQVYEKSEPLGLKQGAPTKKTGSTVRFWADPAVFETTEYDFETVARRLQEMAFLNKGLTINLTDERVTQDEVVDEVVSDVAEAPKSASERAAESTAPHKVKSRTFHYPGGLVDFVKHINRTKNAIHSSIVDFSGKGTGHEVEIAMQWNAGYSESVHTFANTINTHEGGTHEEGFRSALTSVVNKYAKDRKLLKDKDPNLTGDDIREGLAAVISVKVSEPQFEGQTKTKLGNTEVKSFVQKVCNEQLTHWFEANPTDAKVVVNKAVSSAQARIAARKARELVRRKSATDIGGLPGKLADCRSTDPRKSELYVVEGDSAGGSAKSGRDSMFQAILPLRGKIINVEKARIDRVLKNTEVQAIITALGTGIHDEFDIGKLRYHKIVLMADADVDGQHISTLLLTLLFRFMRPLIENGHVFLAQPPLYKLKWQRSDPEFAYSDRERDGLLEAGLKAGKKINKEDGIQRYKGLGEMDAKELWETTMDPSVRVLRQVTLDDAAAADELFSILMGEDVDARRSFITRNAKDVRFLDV
Chain of DNA gyrase subunit A/DNA gyrase subunit B (P9WG47 whole entry): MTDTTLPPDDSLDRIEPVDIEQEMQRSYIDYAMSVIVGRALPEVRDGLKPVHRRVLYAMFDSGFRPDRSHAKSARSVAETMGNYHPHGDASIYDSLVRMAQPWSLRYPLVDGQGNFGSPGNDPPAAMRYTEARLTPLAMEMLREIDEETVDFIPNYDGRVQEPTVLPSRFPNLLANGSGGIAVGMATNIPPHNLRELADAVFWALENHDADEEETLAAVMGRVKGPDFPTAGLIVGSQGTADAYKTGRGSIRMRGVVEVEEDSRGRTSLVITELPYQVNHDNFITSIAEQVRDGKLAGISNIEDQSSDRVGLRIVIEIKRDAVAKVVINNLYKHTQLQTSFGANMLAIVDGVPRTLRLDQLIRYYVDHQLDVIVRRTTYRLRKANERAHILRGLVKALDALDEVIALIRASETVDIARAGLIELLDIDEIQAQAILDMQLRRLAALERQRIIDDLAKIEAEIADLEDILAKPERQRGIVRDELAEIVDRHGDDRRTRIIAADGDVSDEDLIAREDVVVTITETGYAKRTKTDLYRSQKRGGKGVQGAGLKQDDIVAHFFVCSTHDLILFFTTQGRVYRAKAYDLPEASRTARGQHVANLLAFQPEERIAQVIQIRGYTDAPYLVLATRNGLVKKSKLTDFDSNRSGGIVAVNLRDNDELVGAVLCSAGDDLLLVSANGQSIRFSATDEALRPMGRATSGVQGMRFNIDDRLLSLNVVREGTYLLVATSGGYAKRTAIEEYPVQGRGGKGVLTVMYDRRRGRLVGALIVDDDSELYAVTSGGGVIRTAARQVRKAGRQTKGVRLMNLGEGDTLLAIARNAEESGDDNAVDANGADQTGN

| Structure (SMILES) | IC50 [1] | MIC [2] | cytotoxicity at 48 h, 100 µM [3] | IC50 (DNA gyrase subunit B) | cytotoxicity at 72 h, 100 µM [4] |
| --- | --- | --- | --- | --- | --- |
| O=C(Nc1ccc(Cl)cc1)N1CCN(c2nc(=O)c3cc([N+](=O)[O-])ccc3s2)CC1 | 23.7 µM | 28 µM (≈ 12.5 µg/mL) |  |  |  |
| O=c1nc(N2CCN(C(=S)Nc3ccc([N+](=O)[O-])cc3)CC2)sc2ccc([N+](=O)[O-])cc12 | 2.59 µM | 5.29 µM (≈ 2.5 µg/mL) | 2.21% |  |  |
| O=C(Nc1ccc([N+](=O)[O-])cc1)N1CCN(c2nc(=O)c3cc(C(F)(F)F)ccc3s2)CC1 | 26.5 µM | 52.1 µM (≈ 25 µg/mL) |  |  |  |
| O=c1nc(N2CCN(Cc3ccc(Cl)cc3)CC2)sc2ccc(Cl)cc12 | 12.1 µM | 15.4 µM (≈ 6.25 µg/mL) | 5.36% |  |  |
| O=C1C(=O)N(CCN2CCN(NCc3ccccc3OCc3ccccc3)CC2)c2ccc(F)cc21 | 42.3 µM |  |  | 70.1 µM | 11.7% |
| COc1ccc2c(c1)C(=O)C(=O)N2CCN1CCN(NCc2ccccc2C(F)(F)F)CC1 | 39.1 µM |  |  | 61.5 µM | 10.5% |
| O=c1nc(N2CCN(Cc3ccc([N+](=O)[O-])cc3)CC2)sc2ccc(C(F)(F)F)cc12 | 4.55 µM | 5.19 µM (≈ 2.34 µg/mL) | 14.6% |  |  |
| O=c1nc(N2CCN(Cc3ccc(Cl)cc3)CC2)sc2ccc(C(F)(F)F)cc12 | 3.86 µM | 6.31 µM (≈ 2.78 µg/mL) | 8.45% |  |  |
| O=C1C(=O)N(CCN2CCN(NCc3ccc(Cl)cc3Cl)CC2)c2ccc(Cl)cc21 | 50 µM |  |  | 68 µM | 24% |
| COc1ccc2c(c1)C(=O)C(=O)N2CCN1CCN(NCc2ccc([N+](=O)[O-])o2)CC1 | > 50 µM |  |  |  | 31.6% |
| O=C1C(=O)N(CCN2CCN(NCc3ccc(Cl)cc3Cl)CC2)c2ccccc21 | 40.3 µM |  |  | 84 µM | 18.5% |
| O=C1C(=O)N(CCN2CCN(NCc3ccccc3F)CC2)c2ccc(Cl)cc21 | > 50 µM |  |  |  | 17.6% |
| COc1ccccc1CNN1CCN(CCN2C(=O)C(=O)c3ccccc32)CC1 | > 50 µM |  |  |  | 21.3% |
| O=C1C(=O)N(CCN2CCN(NCc3ccccc3C(F)(F)F)CC2)c2ccc(F)cc21 | 3.6 µM |  |  | 10.6 µM | 20.6% |
| COc1ccc2c(c1)C(=O)C(=O)N2CCN1CCN(NCc2ccccc2)CC1 | 48.2 µM |  |  | 92 µM | 21.6% |
| Cc1ccc(NC(=O)N2CCN(c3nc(=O)c4cc(Cl)ccc4s3)CC2)cc1 | 2.62 µM | 6.02 µM (≈ 2.5 µg/mL) | 5.14% |  |  |
| O=C1C(=O)N(CCN2CCN(NCc3ccc(Cl)cc3Cl)CC2)c2ccc(F)cc21 | 24.2 µM |  |  | 43 µM | 13.9% |
| Cc1ccc(NC(=S)N2CCN(c3nc(=O)c4cc(C(F)(F)F)ccc4s3)CC2)cc1 | 4.51 µM | 9.54 µM (≈ 4.43 µg/mL) | 16.4% |  |  |
| O=c1nc(N2CCN(C(=S)Nc3ccc(Cl)cc3)CC2)sc2ccc([N+](=O)[O-])cc12 | 0.51 µM | 4.41 µM (≈ 2.04 µg/mL) | 1.81% |  |  |
| Cc1ccc2c(c1)C(=O)C(=O)N2CCN1CCN(NCc2cccc(Cl)c2Cl)CC1 | 43.1 µM |  |  | 53.6 µM | 27.8% |
| O=C1C(=O)N(CCN2CCN(NCc3ccc([N+](=O)[O-])o3)CC2)c2ccc(F)cc21 | > 50 µM |  |  |  | 37.8% |

| Structure (SMILES) | IC50 [1] | MIC [2] | cytotoxicity at 48 h, 100 µM [3] | IC50 (DNA gyrase subunit B) | cytotoxicity at 72 h, 100 µM [4] |
| --- | --- | --- | --- | --- | --- |
| O=c1nc(N2CCN(C(=S)Nc3ccc([N+](=O)[O-])cc3)CC2)sc2ccc(C(F)(F)F)cc12 | 2.16 µM | 5.04 µM (≈ 2.5 µg/mL) | 5.48% |  |  |
| Cc1ccc2c(c1)C(=O)C(=O)N2CCN1CCN(NCc2ccc([N+](=O)[O-])o2)CC1 | > 50 µM |  |  |  | 27.8% |
| COc1ccc2c(c1)C(=O)C(=O)N2CCN1CCN(NCc2ccc(Cl)cc2Cl)CC1 | 4.1 µM |  |  | 15.8 µM | 26.4% |
| O=C1C(=O)N(CCN2CCN(NCc3ccccc3C(F)(F)F)CC2)c2ccccc21 | 25 µM |  |  | 51 µM | 4.2% |
| O=c1nc(N2CCN(Cc3ccc([N+](=O)[O-])cc3)CC2)sc2ccc([N+](=O)[O-])cc12 | 4.21 µM | 7.31 µM (≈ 3.12 µg/mL) | 21.4% |  |  |
| O=C(Nc1ccc(Cl)cc1)N1CCN(c2nc(=O)c3cc(Cl)ccc3s2)CC1 | 10.5 µM | 17.9 µM (≈ 7.8 µg/mL) | 2.56% |  |  |
| O=C1C(=O)N(CCN2CCN(NCc3ccccc3F)CC2)c2ccccc21 | 43.6 µM |  |  | 83 µM | 10.3% |
| O=c1nc(N2CCN(Cc3ccc([N+](=O)[O-])cc3)CC2)sc2ccc(Cl)cc12 | 7.33 µM | 15 µM (≈ 6.25 µg/mL) | 5.48% |  |  |
| O=c1nc(N2CCN(C(=S)Nc3ccc([N+](=O)[O-])cc3)CC2)sc2ccc(Cl)cc12 | 6.23 µM | 13.5 µM (≈ 6.25 µg/mL) | 1.45% |  |  |
| COc1ccc2c(c1)C(=O)C(=O)N2CCN1CCN(NCc2cccc(Cl)c2Cl)CC1 | 48.6 µM |  |  | 73 µM | 23.9% |
| Cc1ccc(NC(=S)N2CCN(c3nc(=O)c4cc(Cl)ccc4s3)CC2)cc1 | 11.6 µM | 14.5 µM (≈ 6.25 µg/mL) | 2.48% |  |  |
| O=C(Nc1ccccc1)N1CCN(c2nc(=O)c3cc(Cl)ccc3s2)CC1 | 17.5 µM | 15.6 µM (≈ 6.25 µg/mL) | 16.5% |  |  |
| Cc1ccc(CN2CCN(c3nc(=O)c4cc(Cl)ccc4s3)CC2)cc1 | 21.5 µM | 24.2 µM (≈ 9.36 µg/mL) | 2.36% |  |  |
| Cc1ccc2c(c1)C(=O)C(=O)N2CCN1CCN(NCc2ccccc2C(F)(F)F)CC1 | > 50 µM |  |  |  | 13.6% |
| CO[C@@H]1[C@@H](OC(N)=O)[C@@H](O)[C@H](Oc2ccc3c(O)c(NC(=O)c4ccc(O)c(CC=C(C)C)c4)c(=O)oc3c2C)OC1(C)C [NOVOBIOCIN] |  | > 200 µM | 7.56% |  |  |
| Cc1ccc(CN2CCN(c3nc(=O)c4cc(C(F)(F)F)ccc4s3)CC2)cc1 | 11.6 µM | 16.7 µM (≈ 7.02 µg/mL) | 18.6% |  |  |
| O=c1nc(N2CCN(C(=S)Nc3ccccc3)CC2)sc2ccc(C(F)(F)F)cc12 | 0.83 µM | 4.62 µM (≈ 2.08 µg/mL) | 6.48% |  |  |
| O=c1nc(N2CCN(C(=S)Nc3ccccc3)CC2)sc2ccc(Cl)cc12 | 10.9 µM | 11.2 µM (≈ 4.68 µg/mL) | 2.35% |  |  |
| O=c1nc(N2CCN(Cc3ccccc3)CC2)sc2ccc(Cl)cc12 | 17.6 µM | 33.6 µM (≈ 12.5 µg/mL) |  |  |  |
| O=C(Nc1ccc([N+](=O)[O-])cc1)N1CCN(c2nc(=O)c3cc(Cl)ccc3s2)CC1 | 4.61 µM | 5.24 µM (≈ 2.34 µg/mL) | 3.56% |  |  |
| O=C(Nc1ccc(Cl)cc1)N1CCN(c2nc(=O)c3cc(C(F)(F)F)ccc3s2)CC1 | 10.5 µM | 13.3 µM (≈ 6.25 µg/mL) | 10.2% |  |  |

| Structure (SMILES) | IC50 [1] | MIC [2] | cytotoxicity at 48 h, 100 µM [3] | IC50 (DNA gyrase subunit B) | cytotoxicity at 72 h, 100 µM [4] |
| --- | --- | --- | --- | --- | --- |
| O=C1C(=O)N(CCN2CCN(NCc3ccccc3)CC2)c2ccccc21 | > 50 µM |  |  |  | 7.6% |
| O=c1nc(N2CCN(C(=S)Nc3ccc(Cl)cc3)CC2)sc2ccc(C(F)(F)F)cc12 | 4.23 µM | 8.59 µM (≈ 4.17 µg/mL) | 3.15% |  |  |
| Cc1ccc(NC(=O)N2CCN(c3nc(=O)c4cc([N+](=O)[O-])ccc4s3)CC2)cc1 | 9.62 µM | 14.7 µM (≈ 6.25 µg/mL) | 16.2% |  |  |
| Cc1ccc2c(c1)C(=O)C(=O)N2CCN1CCN(NCc2ccccc2)CC1 | > 50 µM |  |  |  | 19.7% |
| O=C(Nc1ccc([N+](=O)[O-])cc1)N1CCN(c2nc(=O)c3cc([N+](=O)[O-])ccc3s2)CC1 | 9.11 µM | 13.7 µM (≈ 6.24 µg/mL) | 15.2% |  |  |
| Cc1ccc(NC(=O)N2CCN(c3nc(=O)c4cc(C(F)(F)F)ccc4s3)CC2)cc1 | 5.26 µM | 11.5 µM (≈ 5.18 µg/mL) | 7.56% |  |  |
| Cc1ccc(NC(=S)N2CCN(c3nc(=O)c4cc([N+](=O)[O-])ccc4s3)CC2)cc1 | 0.82 µM | 2.83 µM (≈ 1.25 µg/mL) | 4.22% |  |  |
| O=C1C(=O)N(CCN2CCN(NCc3ccccc3)CC2)c2ccc(F)cc21 | > 50 µM |  |  |  | 29.3% |
| O=C(Nc1ccccc1)N1CCN(c2nc(=O)c3cc(C(F)(F)F)ccc3s2)CC1 | 11 µM | 19.2 µM (≈ 8.33 µg/mL) |  |  |  |
| O=c1nc(N2CCN(Cc3ccccc3)CC2)sc2ccc(C(F)(F)F)cc12 | 11.5 µM | 15.4 µM (≈ 6.25 µg/mL) |  |  |  |
| O=C(Nc1ccccc1)N1CCN(c2nc(=O)c3cc([N+](=O)[O-])ccc3s2)CC1 | 16.8 µM | 30.4 µM (≈ 12.5 µg/mL) |  |  |  |
| COc1ccc2c(c1)C(=O)C(=O)N2CCN1CCN(NCc2ccccc2F)CC1 | > 50 µM |  |  |  | 16.3% |
| O=c1nc(N2CCN(Cc3ccccc3)CC2)sc2ccc([N+](=O)[O-])cc12 | 3.21 µM | 4.08 µM (≈ 1.56 µg/mL) | 5.41% |  |  |
| Cc1ccc(CN2CCN(c3nc(=O)c4cc([N+](=O)[O-])ccc4s3)CC2)cc1 | 8.93 µM | 15.8 µM (≈ 6.25 µg/mL) | 26.5% |  |  |
| O=c1nc(N2CCN(C(=S)Nc3ccccc3)CC2)sc2ccc([N+](=O)[O-])cc12 | 0.77 µM | 1.82 µM (≈ 0.778 µg/mL) | 3.25% |  |  |
| O=C1C(=O)N(CCN2CCN(NCc3ccccc3)CC2)c2ccc(Cl)cc21 | > 50 µM |  |  |  | 22.3% |
| O=c1nc(N2CCN(C(=S)Nc3ccc(Cl)cc3)CC2)sc2ccc(Cl)cc12 | 6.86 µM | 6.92 µM (≈ 3.12 µg/mL) | 25.6% |  |  |
| O=C1C(=O)N(CCN2CCN(NCc3cccc(Cl)c3Cl)CC2)c2ccc(F)cc21 | > 50 µM |  |  |  | 31.2% |
| COc1ccccc1CNN1CCN(CCN2C(=O)C(=O)c3cc(F)ccc32)CC1 | > 50 µM |  |  |  | 19.1% |
| O=c1nc(N2CCN(Cc3ccc(Cl)cc3)CC2)sc2ccc([N+](=O)[O-])cc12 | 3.68 µM | 5.99 µM (≈ 2.5 µg/mL) | 1.56% |  |  |

Source: ChEMBL document CHEMBL3875146, “Mycobacterium Tuberculosis (MTB) GyrB inhibitors: An attractive approach for developing novel drugs against TB” (Eur J Med Chem, 2016)
